Reference: patent publication US10791740B2, “Enhancement of antibiotic efficacy” (priority 2014, dated 2020)
In brackets after ≈: the same amount, converted by molar mass. Where two headings read alike, the source gives them in different places.

Columns and labels:
[1] = system: tetracycline resistant E. coli; format: cell-based, Escherichia coli; details: for MIC: single agent, Table 5; for MIC (μM) of amphiphile alone: tetracycline resistant E. coli, Tables 6 and 7
From the text: (§1) Certain aspects are drawn to a method for increasing or enhancing the antimicrobial activity of an antimicrobial agent. As used herein, the “antimicrobial activity” of an antimicrobial agent is defined as the property of a substance to inhibit the growth and reproduction of a microbial organism or to kill it. Common terms generally applied to bacteria are bacteriostatic (stops growth) and bactericidal (kills bacteria). Depending on the concentrations applied, microbial growth can be slowed or stopped in comparison to concurrent experiments conducted in the absence of an antimicrobial agent. Depending on the concentrations applied, additional microbe death can occur in comparison to concurrent experiments conducted in the absence of an antimicrobial agent. […] The MIC is the lowest concentration of any agent having antimicrobial activity that inhibits the growth of a microorganism as judged by visual inspection. MIC can be determined by inoculating media with the organism and adding the antimicrobial agent diluted successively in half.
(§2) Among the organisms studied are several strains of the bacterium E. coli.
N,N′-Dibenzyl-4,13-diaza-18-crown-6 is referred to in the table as dibenzyldiaza-18-crown-6.
(§3) Minimal Inhibitory Concentration (MIC) Procedure. […] Prepare initial concentration of all the compounds required. • 5. […] Vortex each test tube for 2-3 seconds. • 11.

[2] = cited from earlier work
E. coli [3] = details: Journal of the American Chemical Society 2002, 124, 9022-3, cited from earlier work
E. coli [4] = experiment: MIC determination, E. coli (Table 1); format: cell-based, Escherichia coli; details: single agent
From the text: as §1, §2, §3

B. stubtilis = experiment: MIC determination, B. subtilis (Table 1); format: cell-based, Bacillus subtilis; details: single agent
From the text: (§4) Certain aspects are drawn to a method for increasing or enhancing the antimicrobial activity of an antimicrobial agent. As used herein, the “antimicrobial activity” of an antimicrobial agent is defined as the property of a substance to inhibit the growth and reproduction of a microbial organism or to kill it. Common terms generally applied to bacteria are bacteriostatic (stops growth) and bactericidal (kills bacteria). Depending on the concentrations applied, microbial growth can be slowed or stopped in comparison to concurrent experiments conducted in the absence of an antimicrobial agent. Depending on the concentrations applied, additional microbe death can occur in comparison to concurrent experiments conducted in the absence of an antimicrobial agent. The results of minimum inhibitory concentration (MIC) evaluations and growth curves are presented herein and the conditions are specified. The MIC is the lowest concentration of any agent having antimicrobial activity that inhibits the growth of a microorganism as judged by visual inspection. MIC can be determined by inoculating media with the organism and adding the antimicrobial agent diluted successively in half. […] Reference herein to increasing or enhancing activity, efficacy, potency, and the like are used interchangeably to mean that when the synthetic amphiphile is present, the ability of the antimicrobial agent to inhibit the growth of or to kill an organism will be manifested at a concentration lower than would be required to achieve the same results in the absence of said synthetic amphiphile.
(§5) Among the organisms studied are several strains of the bacterium E. coli. […] Experiments were conducted to determine the MIC values for the synthetic amphiphiles known as lariat ethers according to the procedures described in Antimicrobial M07-A9: Methods for Dilution Antimicrobial Susceptibility Tests for Bacteria that Grow Aerobically; Clinical and Laboratory Standards Institute, 2012; Vol. 32, 67 pp. MIC values so determined for several lariat ethers and for several antibiotics are shown in Table 1.

S. cerevisiae = experiment: MIC determination, S. cerevisiae (Table 1); format: cell-based, Saccharomyces cerevisiae; details: single agent
From the text: as §4, §5

DH5α E. coli [5] = experiment: MIC of single agents against DH5α E. coli; format: cell-based, Escherichia coli
From the text: as §1, §2, §3

HEK-293 cells = experiment: MTT assay of toxicity to HEK-293 cells
Experimental: The toxicity of C6. C8, C10. C11 and C14 lariat ethers to HEK-293 cells was determined by using an MTT assay. […] The abscissa is a logarithmic scale for the concentrations ranging from 1 μM to 1000 μM (1 mM) used in the experiment. The ordinate represents percent survival of HEK-293 cells.
Growth medium containing DMEM with high glucose (ATCC). 10% fetal bovine serum (FBS: Sigma-Aldrich) and 10 μg/mL of blasticidin (Thermo-Fischer) was prepared. HEK 293 cells were thawed out from cryo-preserved samples in 10 mL growth media, centrifuged at 500 rpm for 10 minutes to remove preservative. The cells were then resuspended in fresh growth medium and cultured using a T-75 flask (Thermo-Fischer) at 37° C. and 5% CO2. Cells were monitored for confluence and growth medium was replaced every 48 h, until cells were placed onto a 96-well plate for toxicity studies.
After reaching 80-90% confluence, cells were trypsinized and suspended in media containing DMEM and 10% FBS (no antibiotics). The cells were counted on a hemacytometer and plated at a density of 20,000 cells per well in a 96-well plate and grown for 24 hours to reach 60-70% confluence. DMSO stocks of C6, C8, C10, C11 and C14 diaza-18-crown-6 lariat ethers were prepared at […] and diluted 1:10 to get working concentrations of 20 mM, 2 mM, and 0.2 mM. Each stock was further diluted […] into DMEM supplemented with 10% FBS to get final concentrations of 1 mM, 0.1 mM, 0.01 mM (10 μM) and 0.001 mM (1 μM). The original media was then removed from the cells and replaced with 200 μL media containing the desired concentration of compound. Three wells were used for each concentration providing experimental triplicates. […] The absorbance was measured at 570 nm and nonspecific absorbance was corrected at 650 nm, using SpectraMax340 micro plate reader.
The experiment was performed in triplicate and the average of percent survival of three experiments was determined. […] The lethal dose 50 (LD50) for each compound was calculated by using the equation for a logarithmic regression curve.

DH5α E. coli [6] = experiment: Inhibitory concentration (IC50) to DH5α E. coli cells (FIG. 4); format: cell-based, Escherichia coli; details: DH5α E. coli, FIG. 4
From the text: Two commonly used abbreviations are LD50 and IC50. The former is the concentration of an agent that comprises a lethal dose to 50% of the organism under study. The latter is the concentration of agent that inhibits growth of 50% of the organism under study. […] The abscissa represents the number of (CH2) groups in spacer chains. The ordinate is logarithmic and reflects the concentrations (in μM) of the various lariat ethers used.

[7] = system: tetracycline resistant E. coli
Experimental: • 1. Steps 1-7, described in the MIC procedure, shown in Example 2, were followed. • 2. While the E. coli grew, the appropriate volume of compound was added to each test tube. • 3. Antibiotics were added at the required volume of solution to obtain the desired concentration in each test tube. […] Each test tube was vortexed for 2-3 seconds. • 5. Steps 10-12 from the MIC procedure, shown in Example 2, were then executed.

K-12 E. coli [8] = experiment: MIC of single agents against K-12 E. coli
K-12 E. coli [9] = experiment: Combination of amphiphile and antibiotic against K-12 E. coli
Experimental: (§6) Steps 1-7, described in the MIC procedure, shown in Example 2, were followed. • 2. While the E. coli grew, the appropriate volume of compound was added to each test tube. • 3. Antibiotics were added at the required volume of solution to obtain the desired concentration in each test tube. […] Each test tube was vortexed for 2-3 seconds. • 5. Steps 10-12 from the MIC procedure, shown in Example 2, were then executed.

DH5α E. coli [10] = experiment: Combination of lariat ether and antibiotic against DH5α E. coli; details: 0.4 vol-% DMSO
Experimental: The volume of water added was between 12 to 0.5 μL. The volume of water added was not constant but the volume of media was changed so that the total volume was kept constant at 2 mL.
as §6

c1ccc(CN2CCOCCOCCN(CCCCCCCCCCN3CCOCCOCCN(CCCCCCCCCCN4CCOCCOCCN(Cc5ccccc5)CCOCCOCC4)CCOCCOCC3)CCOCCOCC2)cc1
MIC [1]: 35 ± 5 µM (≈ 43.5 µg/mL) | MIC (μM) of amphiphile alone [1]: 35 µM | cation transport in liposome membranes ([2]; thickest DEPC membranes): nearly inactive

c1ccc(CN2CCOCCOCCN(CCCCCCCCN3CCOCCOCCN(CCCCCCCCN4CCOCCOCCN(Cc5ccccc5)CCOCCOCC4)CCOCCOCC3)CCOCCOCC2)cc1 [C8 hydraphile]
MIC [1]: 250 ± 10 µM (≈ 297 µg/mL) | MIC (μM) of amphiphile alone [1]: 250 µM | cation transport in liposome membranes ([2]; DMPC, DOPC, or DEPC membranes): failed to transport | toxicity to E. coli (E. coli [3]; listed as C8 benzyl hydraphile): did not | toxicity to E. coli (E. coli [3]; listed as hydraphile having —(CH2)8— spacers): did not exhibit toxicity

CCCCCCCCCCCN1CCOCCOCCN(CCCCCCCCCCC)CCOCCOCC1 [C11 lariat ether, N,N′-di-n-undecyl-4,13-diaza-18-crown-6]
MIC (E. coli [4]): 24 µM (≈ 13.7 µg/mL) | MIC (μM) B. stubtilis (B. stubtilis): 9 µM (≈ 5.14 µg/mL) | MIC (μM) S. cerevisiae (S. cerevisiae): 1.5 µM (≈ 0.856 µg/mL) | MIC (μM) of lariat ether alone (DH5α E. coli [5]; DH5α E. coli, Tables 2 and 3): 24 µM | MIC to DH5α E. coli (DH5α E. coli [5]; single agent, values of the running text): 24 µM | MIC [1]: 24 µM (≈ 13.7 µg/mL) | MIC (μM) of amphiphile alone [1]: 24 µM | LD50 to HEK-293 (HEK-293 cells): 22 µM | IC50 (DH5α E. coli [6]): 12 µM | Fold Enhancement ([7]; Tetracycline with 8 μM C11 lariat ether): 5 fold | Fold Enhancement ([7]; Tetracycline with 12 μM C11 lariat ether): 10 fold | Fold Enhancement ([7]; Tetracycline with 16 μM C11 lariat ether): 10 fold | Fold Enhancement ([7]; Tetracycline with 18 μM C11 lariat ether): 10 fold | MIC (μM) of amphiphile alone (K-12 E. coli [8]): 24 µM | Fold Enhancement (K-12 E. coli [9]; Rifampicin with 6 μM C11 lariat ether): 2 fold | Fold Enhancement (K-12 E. coli [9]; Tetracycline with 6 μM C11 lariat ether): ~2 fold | Fold Enhancement (DH5α E. coli [10]; rifampicin with 8 μM n-C11 lariat ether): 4 fold | Fold Enhancement (DH5α E. coli [10]; rifampicin with 12 μM n-C11 lariat ether): 10 fold | Fold Enhancement (DH5α E. coli [10]; rifampicin with 16 μM n-C11 lariat ether): 10 fold | Fold Enhancement (DH5α E. coli [10]; rifampicin with 18 μM n-C11 lariat ether): 20 fold | Fold Enhancement (DH5α E. coli [10]; tetracycline with 4 μM n-C11 lariat ether): 4 fold | Fold Enhancement (DH5α E. coli [10]; tetracycline with 12 μM n-C11 lariat ether): 12 fold | Fold Enhancement (DH5α E. coli [10]; tetracycline with 16 μM n-C11 lariat ether): 48 fold | Fold Enhancement (DH5α E. coli [10]; tetracycline with 18 μM n-C11 lariat ether): 8 fold
